Data reported in patent US9128079B2, “Methods of using lung or bronchial epithelial cells to identify bitter taste modulators” (The Coca-Cola Company, priority 2011, dated 2015).

Key:
[1] = system: 16HBE cells; assay: FLIPR calcium flux assay, intracellular calcium release on tastant addition; assay type: cell-based, human; details: increasing concentrations of tastant, calcium-sensitive dye, FIG. 2
Protocol: Calcium flux assays were performed as previously described in Strachan et al., “Ribosomal S6 kinase 2 directly phosphorylates the 5-hydroxytryptamine 2A (5-HT2A) serotonin receptor, thereby modulating 5-HT2A signaling,” J Biol Chem 284:5557-5573 (2009). 16-HBE cells were trypsinized, counted, and seeded onto clear-bottomed 96 well plates (Greiner Bio-One; Monroe, N.C.) pre-coated with poly-D-lysine, at a density of […]. After a 24 hour incubation, media was removed and replaced with a Ca^2+ assay buffer (20 mM HEPES, lx HBSS, 2.5 mM probenecid, and Ca^2+ assay dye, pH 7.4) (FLIPR® Calcium Assay Kit; Molecular Device Corp, Sunnyvale, Calif.). After a 1-hour incubation at 37° C., during which the cells were allowed to take up the dye, fluorescence responses of cells were measured with a FLIPRTETRA (Molecular Device Corp; Sunnyvale, Calif.) device upon the addition of variable concentrations of tastant, or vehicle, in the presence of assay buffer (20 mM HEPES, pH 7.4, 1× Hanks Balanced Salt [Invitrogen; Carlsbad, Calif.] and 2.5 mM probenecid). After data acquisition, a subsequent addition of […] was injected into each well, and fluorescence was measured again. […] The cells were loaded with fluorescent calcium-sensitive dye, treated with a variety of tastants, and monitored for intracellular calcium release with a FLIPR imaging device.

[2] = system: 16HBE cells; assay: GloSensor cAMP assay, inhibition of forskolin-stimulated cAMP production; assay type: cell-based, human; details: increasing concentrations, GloSensor luminescence, FIG. 3
Protocol: Also shown is that overexpression of the wildtype form of RGS21 blunts bitter signaling and increases cAMP levels. Inhibition of forskolin-stimulated cAMP production by treatment with indicated concentrations of denatonium-B was determined 24 hours post-transfection by detection of Promega's cAMP GloSensor-dependent luminescence. Twenty-four hours post-transfection, cells were re-plated on poly-D-lysine-treated, clear-bottom, white 384-well plates at a density of 15,000 cells/well. Forty-eight hours post-transfection, culture medium was aspirated and cells were washed once with assay medium (DMEM (without FBS or phenol), 15 mM HEPES pH 7.4) before being incubated for 2 hours with 20 ill/well of equilibration medium (assay medium with 4% GloSensor™ substrate (Promega; Madison, Wis.)). After two hours, 10 μl of 3× final concentration denatonium benzoate (diluted in 3 μM forskolin-containing assay medium) was added to each well and allowed to incubate for 10 minutes before GloSensor™ emission was read on a MicroBeta Plate Counter (PerkinElmer; Waltham, Mass.). Before plotting, luminescence counts were normalized to 100% maximal response for each condition to account for variability in GloSensor™ expression, transfection efficiency, and the exact number of cells per well.

CC[N+](CC)(CC(=O)Nc1c(C)cccc1C)Cc1ccccc1 [denatonium-B, denatonium benzoate]
intracellular calcium response of 16HBE cells [1]: increase in intracellular calcium
intracellular cyclic AMP concentration in 16HBE cells [2]: decreasing the concentration of intracellular cyclic AMP
